Test results reported in patent US9943525B2, “Composition for reducing cell senescence comprising Rho-kinase inhibitor and use thereof” (Samsung Electronics Co., Ltd., priority 2014, dated 2018).

Key:
[1] = test system: senescent fibroblasts (after 37 cell passages); test: mitochondrial membrane potential (JC-1) by flow cytometry; format: cell-based, human; conditions: vs control, p<0.05, FIG. 11
Experimental: Mitochondrial membrane potentials were measured using a MitoProbe™ JC-1 Assay kit for Flow Cytometry (Life technologies, T3168) according to manufacturer's manuals. JC-1 is accumulated in mitochondria in a potential-dependent manner, and this accumulation is identified by fluorescence emission shift from green (about 529 nm) to red (about 590 nm). As a result, mitochondrial depolarization is identified by a decrease in a red/green fluorescence ratio. The mitochondrial membrane potentials were measured by excitation at 488 nm using a FACSCaliber (Beckton Dickinson) and using a flow cytometer by using 530/30 nm and 585/42 nm band pass filters. The results were analyzed using Cell Quest 3.2 software (Beckton Dickinson). FIG. 11 is a graph displaying action potentials of mitochondria. […] In FIG. 11, * indicates statistically significant (p<0.05). In FIG. 11, the vertical axis is mitochondrial membrane potential. “MMP” refers to mitochondria membrane potential.

[2] = test system: senescent myoblasts (passage 11); test: microscopic observation of cell number and shape; format: cell-based, Human; conditions: 4 weeks, FIG. 13; for numbers of cells: vs DMSO
Experimental: Myoblast cell lines (Human Skeletal Muscle Myoblasts, Lonza CC-2580 LOT:0000387550) were cultured in SkBM™-2 Basal Media (Lonza CC-3246) including an SkGM™-2 SingleQuots™ Kit (Lonza CC-3244) on plates coated with Collagen Type I (Greiner Bio One, 658950) in a 5% CO2 incubator at 37° C. Subculture was initiated when the cells were approximately 85% confluent in plates. Early subcultures were performed at a split ratio of 1:4, and later subcultures were performed at a split ratio of 1:2. When cell doubling time was 14 days, the cells were regarded as senescent myoblasts (cell passages 10 to 12).
(§1) Senescent cells were seeded on each well of a 6-well plate coated with Collagen Type I (Greiner Bio One, 657950) in a concentration of 2,000 cells/well. Senescent myoblasts (passage 11) were cultured in the presence of 5 μM of Y-27632, 5 μM of FASUDIL, and 0.5 μM of SR3677 for 4 weeks in a 5% CO2 incubator at 37° C. The culture media were changed at every 4 days with new culture media supplemented with 5 μM of Y-27632, 5 μM of FASUDIL, and 0.5 μM of SR3677. A negative control group was prepared in the same manner, except that 0.05 (v/v) % of DMSO was used.
FIG. 13 illustrates microscopic images of cells cultured in the presence of 5 μM of Y-27632, 5 μM of FASUDIL, and 0.5 μM of SR3677. In “a” of FIG. 13, a portion was selected and marked by a rectangle with a dashed line, and the selected portion was enlarged in a1 for closer examination of the cultured cells. In a1 of FIG. 13, a portion was selected, marked by a rectangle with a dashed line, enlarged in a2 for much closer examination of the cultured cells (Scale bar 20 μm).

[3] = test system: senescent progeric fibroblasts (cell passage 17); test: mitochondrial membrane potential (JC-1) by flow cytometry; format: cell-based, human; conditions: vs control, p<0.05, FIG. 20
Experimental: (§2) Progeric fibroblasts (Hutchinson-Gilford Progeria Syndrome Skin Fibroblasts, Coriell Cell Repositories, AG03198 B) were cultured in Dulbecco's Modified Eagle's Media (DMEM) supplemented with 10% fetal bovine serpm (FBS) and 100 unit/ml of penicillin, and 100 μg/ml of streptomycin (two antibiotics are purchased from Gibro-BRL and Grand Island, N.Y.) in a 5% CO2 incubator at 37° C. Subculturing was initiated when the cells were approximately 85% confluent in plates. Early subcultures were performed at a split ratio of 1:4, and later subcultures were performed at a split ratio of 1:2. When cell doubling time was 14 days, the cells were regarded as senescent progeric fibroblasts (cell passages 16 to 17).
as §1, with “The senescent progeric fibroblasts (cell passage 17)” for “Senescent cells”, “plate” for “plate coated with Collagen Type I (Greiner Bio One, 657950)”, “cells/well and” for “cells/well. Senescent myoblasts (passage 11) were”
Mitochondrial membrane potentials were measured using a MitoProbe™ JC-1 Assay kit for Flow Cytometry (Life technologies, T3168) according to manufacturer's manuals. JC-1 is accumulated in mitochondria in a potential-dependent manner, and this accumulation is identified by fluorescence emission shift from green (about 529 nm) to red (about 590 nm). As a result, mitochondrial depolarization is identified by a decrease in a red/green fluorescence ratio. The mitochondrial membrane potentials were measured by excitation at 488 nm using a FACSCaliber (Beckton Dickinson) and using a flow cytometer by using 530/30 nm and 585/42 nm band pass filters. The results were analyzed using Cell Quest 3.2 software (Beckton Dickinson). FIG. 20 is a graph displaying action potentials of mitochondria. […] In FIG. 20, * indicates statistically significant (p<0.05). […]

[4] = test system: senescent progeric fibroblasts (cell passage 17); test: microscopic observation of cell number and shape; format: cell-based, human; conditions: 4 weeks, FIG. 17; for numbers of cells: vs DMSO
Experimental: as §2
as §1, with “The senescent progeric fibroblasts (cell passage 17)” for “Senescent cells”, “plate” for “plate coated with Collagen Type I (Greiner Bio One, 657950)”, “cells/well and” for “cells/well. Senescent myoblasts (passage 11) were”
FIG. 17 illustrates microscopic images of cells cultured in the presence of 5 μM of Y-27632, 5 μM of FASUDIL, and 0.5 μM of SR3677. In “a” of FIG. 17, a portion was selected, marked by a rectangle with a dashed line, and enlarged in a1 for closer examination of the cultured cells. In a1 of FIG. 17, a portion of a1 was selected, marked by a rectangle with a dashed line, and enlarged in a2 for much closer examination of the cultured cells (Scale bar 20 um).

[5] = test system: senescent fibroblasts (after 37 cell passages); test: mitochondrial ROS (MitoSOX) by flow cytometry; format: cell-based, human; conditions: vs control, p<0.05, FIG. 10
Experimental: In addition, damage of mitochondria was identified by measuring reactive oxygen species (ROS) and mitochondrial membrane potentials which are well known in the art. ROS were measured using a 0.2 μM MitoSOX (Invitrogen, M3608) according to manufacturer's manuals. Light having a wavelength of 520 nm was irradiated to the cells using a FACSCaliber (Beckton Dickinson), and light emission was measured at 580 nm. The results were analyzed using a Cell Quest 3.2 software (Beckton Dickinson). […] In FIG. 10, * indicates statistically significant (p<0.05).

| Compound | action potentials of mitochondria (mitochondrial membrane potential) ([1]; 5 μM) | cell shape ([2]; 5 μM) | numbers of cells ([2]; 5 μM) | action potentials of mitochondria (mitochondrial membrane potential) ([3]; 5 μM) | cell shape ([4]; 5 μM) | numbers of cells ([4]; 5 μM) | ROS ([5]; 5 μM) | action potentials of mitochondria (mitochondrial membrane potential) ([1]; 0.5 μM) | cell shape ([2]; 0.5 μM) | numbers of cells ([2]; 0.5 μM) | action potentials of mitochondria (mitochondrial membrane potential) ([3]; 0.5 μM) | cell shape ([4]; 0.5 μM) | numbers of cells ([4]; 0.5 μM) | ROS ([5]; 0.5 μM) |
| --- | --- | --- | --- | --- | --- | --- | --- | --- | --- | --- | --- | --- | --- | --- |
| O=S(=O)(c1cccc2cnccc12)N1CCCNCC1 [FASUDIL, 5-(1,4-diazepane-1-sulfonyl)isoquinoline] | significantly increased | spindle shape generally found in young cells | greater than that of the control group | significantly increased | spindle shape generally found in young cells | greater than that of the control group | significantly reduced |  |  |  |  |  |  |  |
| CN(C)CCOc1cc(-c2cn[nH]c2)ccc1NC(=O)C1COc2ccccc2O1 (stereo not drawn) [SR3677] |  |  |  |  |  |  |  | significantly increased | spindle shape generally found in young cells | greater than that of the control group | significantly increased | spindle shape generally found in young cells | greater than that of the control group | significantly reduced |
| C[C@@H](N)[C@H]1CC[C@H](C(=O)Nc2ccncc2)CC1 [Y-27632, (1R,4R)-4-((R)-1-aminoethyl)-N-(pyridin-4-yl)cyclohexanecarboxamide] | significantly increased | spindle shape generally found in young cells | greater than that of the control group | significantly increased | spindle shape generally found in young cells | greater than that of the control group | significantly reduced |  |  |  |  |  |  |  |
